# Results as given in patent publication US9669003B2, “Use of flavone and flavanone derivatives in preparation of sedative and hypnotic drugs” (priority 2012, dated 2017).
# Marks after values point to notes of the source that are not given here.
# Test system: Kunming mice
# Test: Influence on hypnosis effect with pentobarbital sodium doses below the threshold (25 mg/kg i.p.)
# Type: in vivo
# Conditions: test drug 25 mg/kg intragastric single dose, pentobarbital sodium 25 mg/kg i.p. 60 min later, sleep observed in 30 min, n = 10
# In short: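 Percentage of mice sleeping within 30 min after subthreshold pentobarbital sodium (25 mg/kg i.p.), defined by loss of righting reflex over 1 min, analysed by χ2. Compound in 0.5% CMC-Na given intragastrically at 25/50/100 mg/kg 60 min before; groups of 10 Kunming mice, both sexes.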
Structure (SMILES),Number of sleeping animals,rate of sleeping (%)
"COc1ccc(-c2cc(=O)c3c(OC)cc(O)cc3o2)cc1OC [Example 5, 7-hydroxyl-5,3′,4′-trimethoxyl-flavone]",6,60** %

# Same assay, conditions: test drug 50 mg/kg intragastric single dose, pentobarbital sodium 25 mg/kg i.p. 60 min later, sleep observed in 30 min, n = 10
Structure (SMILES),Number of sleeping animals,rate of sleeping (%)
"COc1ccc(-c2cc(=O)c3c(OC)cc(O)cc3o2)cc1OC [Example 5, 7-hydroxyl-5,3′,4′-trimethoxyl-flavone]",8,80*** %

# Same assay, conditions: test drug 100 mg/kg intragastric single dose, pentobarbital sodium 25 mg/kg i.p. 60 min later, sleep observed in 30 min, n = 10
Structure (SMILES),Number of sleeping animals,rate of sleeping (%)
"COc1ccc(-c2cc(=O)c3c(OC)cc(O)cc3o2)cc1OC [Example 5, 7-hydroxyl-5,3′,4′-trimethoxyl-flavone]",9,90*** %

# Test system: Kunming mice
# Test: Influence on autonomic activity of normal mice (ZIL-2 mice autonomic activity meter, counts within 10 min)
# Type: in vivo
# Conditions: intragastric, 25 mg/kg, 1 h after administration, x ± s, n = 10
# In short: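 Activity counts during a 10-min window were taken at 1, 2 and 24 h after dosing in groups of 10 mixed-sex Kunming mice. Compounds were given in 0.5% CMC-Na at 25, 50 or 100 mg/kg. Statistics used Levene's homogeneity test, ANOVA and Dunnett's multiple comparisons.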
row,Structure (SMILES),Times of activities in 1 h after drug administration/10 min
1,"COc1ccc(-c2cc(=O)c3c(OC)cc(O)cc3o2)cc1OC [Example 5, 7-hydroxyl-5,3′,4′-trimethoxyl-flavone]",265.2 ± 50.1 /10 min

# Same assay, conditions: intragastric, 25 mg/kg, 2 h after administration, x ± s, n = 10
row,Structure (SMILES),Times of activities in 2 h after drug administration/10 min
1,"COc1ccc(-c2cc(=O)c3c(OC)cc(O)cc3o2)cc1OC [Example 5, 7-hydroxyl-5,3′,4′-trimethoxyl-flavone]",243.2 ± 42.8 /10 min

# Same assay, conditions: intragastric, 25 mg/kg, 24 h after administration, x ± s, n = 10
row,Structure (SMILES),Times of activities in 24 h after drug administration/10 min
1,"COc1ccc(-c2cc(=O)c3c(OC)cc(O)cc3o2)cc1OC [Example 5, 7-hydroxyl-5,3′,4′-trimethoxyl-flavone]",292.8 ± 82.1 /10 min

# Same assay, conditions: intragastric, 50 mg/kg, 1 h after administration, x ± s, n = 10
row,Structure (SMILES),Times of activities in 1 h after drug administration/10 min
1,"COc1ccc(-c2cc(=O)c3c(OC)cc(O)cc3o2)cc1OC [Example 5, 7-hydroxyl-5,3′,4′-trimethoxyl-flavone]",175.4 ± 50.3 /10 min

# Same assay, conditions: intragastric, 50 mg/kg, 2 h after administration, x ± s, n = 10
row,Structure (SMILES),Times of activities in 2 h after drug administration/10 min
1,"COc1ccc(-c2cc(=O)c3c(OC)cc(O)cc3o2)cc1OC [Example 5, 7-hydroxyl-5,3′,4′-trimethoxyl-flavone]",190.2 ± 56.8 /10 min

# Same assay, conditions: intragastric, 50 mg/kg, 24 h after administration, x ± s, n = 10
row,Structure (SMILES),Times of activities in 24 h after drug administration/10 min
1,"COc1ccc(-c2cc(=O)c3c(OC)cc(O)cc3o2)cc1OC [Example 5, 7-hydroxyl-5,3′,4′-trimethoxyl-flavone]",295.3 ± 91.3 /10 min

# Same assay, conditions: intragastric, 100 mg/kg, 1 h after administration, x ± s, n = 10
row,Structure (SMILES),Times of activities in 1 h after drug administration/10 min
1,"COc1ccc(-c2cc(=O)c3c(OC)cc(O)cc3o2)cc1OC [Example 5, 7-hydroxyl-5,3′,4′-trimethoxyl-flavone]",120.2 ± 39.0 /10 min

# Same assay, conditions: intragastric, 100 mg/kg, 2 h after administration, x ± s, n = 10
row,Structure (SMILES),Times of activities in 2 h after drug administration/10 min
1,"COc1ccc(-c2cc(=O)c3c(OC)cc(O)cc3o2)cc1OC [Example 5, 7-hydroxyl-5,3′,4′-trimethoxyl-flavone]",116.3 ± 49.2 /10 min

# Same assay, conditions: intragastric, 100 mg/kg, 24 h after administration, x ± s, n = 10
row,Structure (SMILES),Times of activities in 24 h after drug administration/10 min
1,"COc1ccc(-c2cc(=O)c3c(OC)cc(O)cc3o2)cc1OC [Example 5, 7-hydroxyl-5,3′,4′-trimethoxyl-flavone]",283.5 ± 94.0 /10 min

# Test system: Kunming mice
# Test: Influence on hypnosis effect with pentobarbital sodium doses at the threshold (50 mg/kg i.p.)
# Type: in vivo
# Conditions: 25 mg/kg intragastric single dose, pentobarbital sodium 50 mg/kg i.p. 60 min later, x ± s, n = 10
# In short: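 Pentobarbital sodium (0.3%, 50 mg/kg i.p.) injected 60 min after a single intragastric dose (25, 50, 100 mg/kg, 0.5% CMC-Na vehicle) in Kunming mice, 10 per group, sexes balanced. Onset and length of sleep (righting reflex lost over 1 min) analysed by ANOVA; sleeping incidence by χ2 test.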
Structure (SMILES),duration of sleep,time to sleep
"COc1ccc(-c2cc(=O)c3c(OC)cc(O)cc3o2)cc1OC [Example 5, 7-hydroxyl-5,3′,4′-trimethoxyl-flavone]",59.92 ± 17.44 min,3.39 ± 1.71 min

# Same assay, conditions: 50 mg/kg intragastric single dose, pentobarbital sodium 50 mg/kg i.p. 60 min later, x ± s, n = 10
Structure (SMILES),duration of sleep,time to sleep
"COc1ccc(-c2cc(=O)c3c(OC)cc(O)cc3o2)cc1OC [Example 5, 7-hydroxyl-5,3′,4′-trimethoxyl-flavone]",74.82 ± 22.78 min,3.26 ± 1.47 min

# Same assay, conditions: 100 mg/kg intragastric single dose, pentobarbital sodium 50 mg/kg i.p. 60 min later, x ± s, n = 10
Structure (SMILES),duration of sleep,time to sleep
"COc1ccc(-c2cc(=O)c3c(OC)cc(O)cc3o2)cc1OC [Example 5, 7-hydroxyl-5,3′,4′-trimethoxyl-flavone]",89.01 ± 18.25 min,2.23 ± 1.19 min
